Assay [1] deals with T1, human type 2 5α-reductase (Homo sapiens, UniProt P31213).
T1 sequence (P31213 1-254): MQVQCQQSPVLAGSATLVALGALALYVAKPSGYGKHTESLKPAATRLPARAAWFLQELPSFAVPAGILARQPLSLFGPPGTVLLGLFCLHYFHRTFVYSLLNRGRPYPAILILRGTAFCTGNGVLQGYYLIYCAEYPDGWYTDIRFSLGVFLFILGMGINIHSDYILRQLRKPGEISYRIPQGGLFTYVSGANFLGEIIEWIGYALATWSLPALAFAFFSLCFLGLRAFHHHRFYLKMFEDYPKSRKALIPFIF
In words: 5α-reductase in vitro inhibitory activity, human type 2.

In assay [2] the target is T2, human type 1 5α-reductase (Homo sapiens, UniProt P18405).
T2 sequence (P18405 1-259): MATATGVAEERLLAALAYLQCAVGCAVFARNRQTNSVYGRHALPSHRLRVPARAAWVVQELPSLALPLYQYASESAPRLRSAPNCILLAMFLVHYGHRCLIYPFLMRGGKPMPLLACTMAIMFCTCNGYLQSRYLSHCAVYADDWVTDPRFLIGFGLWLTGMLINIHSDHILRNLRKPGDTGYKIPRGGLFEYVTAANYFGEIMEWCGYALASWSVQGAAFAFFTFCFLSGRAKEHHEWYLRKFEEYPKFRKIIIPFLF
The experiment in a line: 5α-reductase in vitro inhibitory activity, human type 1.

Take `CC(C)c1cccc(C(C)C)c1NC(=O)OC[C@H]1CC[C@H]2[C@@H]3CNC4=CC(=O)CC[C@]4(C)[C@H]3CC[C@]12C` [Compound 99, 17β-Hydroxymethyl-(2,6-diisopropylphenylcarbamate)-6-azaandrost-4-en-3-one]: the IC50 in assay [1] and in assay [2] was below 0.01 µM throughout.

`C[C@]12CC[C@H]3[C@@H](CNC4=CC(=O)CC[C@@]43C)[C@@H]1CC[C@@H]2C(=O)NC1(c2ccc(Cl)cc2)CCCC1` [Compound 64, 17β-N-1-(4-Chlorophenyl)cyclopentyl-carbamoyl-6-azaandrost-4-en-3-one]: the half-maximal inhibitory concentration (IC50) in assay [1] and in assay [2] was below 0.01 µM throughout.

For `CC(C)(C)c1ccc(C(F)(F)F)cc1NC(=O)[C@H]1CC[C@H]2[C@@H]3CNC4=C(Cl)C(=O)CC[C@]4(C)[C@H]3CC[C@]12C` [Compound 127, 17β-N-(2-t-Butyl-5-trifluoromethyl)phenyl-carbamoyl-6-azaandrost-4-chloro-4-en-3-one], the half-inhibitory concentration (IC50) in assay [1] and in assay [2] was below 0.01 µM each time.

In the case of `C[C@]12CC[C@H]3[C@@H](CNC4=CC(=O)CC[C@@]43C)[C@@H]1CC[C@@H]2C(=O)Nc1cc(C(F)(F)F)cc(C(F)(F)F)c1` [Compound 57, 17β-N-(3,5-Ditrifluoromethyl)phenyl-carbamoyl-6-azaandrost-4-en-3-one], the IC50 in assay [1] and in assay [2] was 0.01 to 0.1 µM each time.

Regarding `CC(C)(C)c1ccc(Cl)cc1NC(=O)[C@H]1CC[C@H]2[C@@H]3CNC4=CC(=O)CC[C@]4(C)[C@H]3CC[C@]12C` [Compound 75, 17β-N-(5-Chloro-2-t-butyl)phenyl-carbamoyl-6-azaandrost-4-en-3-one], the IC50 in assay [1] and in assay [2] was below 0.01 µM throughout.

As to `C[C@]12CC[C@H]3[C@@H](CNC4=CC(=O)CC[C@@]43C)[C@@H]1CC[C@@H]2C(=O)Nc1cccc(C#N)c1` [Compound 107, 17β-N-(3-Cyano)phenyl-carbamoyl-6-azaandrost-4-en-3-one], the results for the IC50 in assay [1] and in assay [2] were below 0.01 µM and above 0.1 µM, respectively.

With `COc1ccccc1Oc1ccc(C(F)(F)F)cc1NC(=O)[C@H]1CC[C@H]2[C@@H]3CNC4=CC(=O)CC[C@]4(C)[C@H]3CC[C@]12C` [Compound 80], the IC50 (usually the point on the concentration scale where inhibition reaches its midpoint) in assay [1] was below 0.01 µM; in assay [2], 0.01 to 0.1 µM.

`CC(C)C(NC(=O)[C@H]1CC[C@H]2[C@@H]3CNC4=CC(=O)CC[C@]4(C)[C@H]3CC[C@]12C)c1ccc(Cl)cc1` (stereo partly drawn) [Compound 65, 17β-N-(1-(4-Chlorophenyl)-2-methyl)propyl-carbamoyl-6-azaandrost-4-en-3-one]: the IC50 was below 0.01 µM in assay [1] and 0.01 to 0.1 µM in assay [2].

Take `C[C@]12CC[C@H]3[C@@H](CNC4=CC(=O)CC[C@@]43C)[C@@H]1CC[C@@H]2C(=O)Nc1cc(C(F)(F)F)ccc1-c1ccccc1` [Compound 112, 17β-N-(2-Phenyl-5-trifluoromethyl)phenyl-carbamoyl-6-azaandrost-4-en-3-one]: the IC50 in assay [1] is below 0.01 µM; in assay [2], 0.01 to 0.1 µM.

Consider `CC(C)(C)c1ccc(C(NC(=O)[C@H]2CC[C@H]3[C@@H]4CNC5=CC(=O)CC[C@]5(C)[C@H]4CC[C@]23C)C(C)(C)C)cc1` (stereo partly drawn) [Compound 73, 17β-N-(1-t-Butyl-1-(4-t-butylphenyl))methyl-carbamoyl-6-azaandrost-4-en-3-one], for which the IC50 in assay [1] and in assay [2] was below 0.01 µM throughout.

Turning to `CC1=C2NC[C@H]3[C@@H]4CC[C@H](C(=O)Nc5c(C(C)C)cccc5C(C)C)[C@@]4(C)CC[C@@H]3[C@@]2(C)C=CC1=O` [Compound 94, 17β-N-(2,6-Di-i-propyl)phenyl-carbamoyl-6-azaandrost-4-methyl-1,4-dien-3-one], the IC50 in assay [1] was below 0.01 µM; in assay [2] it was 0.01 to 0.1 µM.

`CC(C)(C)c1ccc(-c2ccc(C(C)(C)C)c(NC(=O)[C@H]3CC[C@H]4[C@@H]5CNC6=CC(=O)CC[C@]6(C)[C@H]5CC[C@]34C)c2)cc1` [Compound 147, 17β-N-(2-t-Butyl-5-(4-t-butyl)phenyl)phenyl-carbamoyl-6-azaandrost-4-en-3-one]: the 50% inhibitory concentration (IC50) in assay [1] and in assay [2] was below 0.01 µM each time.

For `C[C@]12CC[C@H]3[C@@H](CNC4=CC(=O)CC[C@@]43C)[C@@H]1CC[C@@H]2C(=O)Nc1cc(C(F)(F)F)ccc1Br` [Compound 61, 17β-N-(2-Bromo-5-trifluoromethyl)phenyl-carbamoyl-6-azaandrost-4-en-3-one], the IC50 in assay [1] is below 0.01 µM; in assay [2], 0.01 to 0.1 µM.

Regarding `CC(C)(C)c1ccc(Br)cc1NC(=O)[C@H]1CC[C@H]2[C@@H]3CNC4=CC(=O)CC[C@]4(C)[C@H]3CC[C@]12C` [Compound 74, 17β-N-(5-Bromo-2-t-butyl)phenyl-carbamoyl-6-azaandrost-4-en-3-one], the IC50 in assay [1] and in assay [2] was below 0.01 µM each time.

For the compound `C[C@]12CC[C@H]3[C@@H](CNC4=CC(=O)CC[C@@]43C)[C@@H]1CC[C@@H]2C(=O)Nc1cc(C(F)(F)F)ccc1F` [Compound 129], the IC50 is below 0.01 µM in assay [1] and 0.01 to 0.1 µM in assay [2].

For the compound `CC(C)(C)c1ccc(C2(NC(=O)[C@H]3CC[C@H]4[C@@H]5CNC6=CC(=O)CC[C@]6(C)[C@H]5CC[C@]34C)CCCC2)cc1` [Compound 121, 17β-N-1-(4-t-Butylphenyl)cyclopentyl-carbamoyl-6-azaandrost-4-en-3-one], the IC50 in assay [1] and in assay [2] was below 0.01 µM throughout.

In the case of `C[C@]12CC[C@H]3[C@@H](CNC4=CC(=O)CC[C@@]43C)[C@@H]1CC[C@@H]2C(=O)N1CCC(Cc2ccccc2)CC1` [Compound 37, 17β-N-(4-Benzyl)piperidyl-carbamoyl-6-azaandrost-4-en-3-one], the values for the IC50 in assay [1] and in assay [2] were below 0.01 µM and 0.01 to 0.1 µM, respectively.

`CCS(=O)(=O)c1ccc(C(F)(F)F)cc1NC(=O)[C@H]1CC[C@H]2[C@@H]3CNC4=CC(=O)CC[C@]4(C)[C@H]3CC[C@]12C` [Compound 85, 17β-N-(2-Ethylsulfonyl-5-trifluoromethyl)phenyl-carbamoyl-6-azaandrost-4-en-3-one]: the IC50 in assay [1] and in assay [2] was below 0.01 µM in each case.

As for `CCC1(CC)CC1(NC(=O)[C@H]1CC[C@H]2[C@@H]3CNC4=CC(=O)CC[C@]4(C)[C@H]3CC[C@]12C)c1ccc(C(F)(F)F)cc1` (stereo partly drawn) [Compound 131, 17β-N-(1-(4-Trifluoromethylphenyl)-2,2-diethyl)cyclopropyl-carbamoyl-6-azaandrost-4-en-3-one], the IC50 in assay [1] and in assay [2] was below 0.01 µM in each case.

For the compound `C[C@]12CC[C@H]3[C@@H](CNC4=CC(=O)CC[C@@]43C)[C@@H]1CC[C@@H]2C(=O)Nc1ccccc1C(=O)c1ccccc1` [Compound 123, 17β-N-(2-Benzoyl)phenyl-carbamoyl-6-azaandrost-4-en-3-one], the results for the IC50 in assay [1] and in assay [2] were below 0.01 µM and 0.01 to 0.1 µM, respectively.

Consider `CCc1cc(C#N)ccc1NC(=O)[C@H]1CC[C@H]2[C@@H]3CNC4=CC(=O)CC[C@]4(C)[C@H]3CC[C@]12C` [Compound 84, 17β-N-(2-Ethyl-4-cyano)phenyl-carbamoyl-6-azaandrost-4-en-3-one], for which the IC50 in assay [1] is below 0.01 µM; in assay [2], 0.01 to 0.1 µM.

For the compound `C[C@]12CC[C@H]3[C@@H](CNC4=CC(=O)CC[C@@]43C)[C@@H]1CC[C@@H]2C(=O)NC1(c2ccc(Cl)cc2Cl)CC1` [Compound 101, 17β-N-1-(2,4-Dichlorophenyl)cyclopropyl-carbamoyl-6-azaandrost-4-en-3-one], the IC50 in assay [1] and in assay [2] was below 0.01 µM in each case.

For `CCC(C)(C)c1ccc(Oc2ccccc2)c(NC(=O)[C@H]2CC[C@H]3[C@@H]4CNC5=CC(=O)CC[C@]5(C)[C@H]4CC[C@]23C)c1` [Compound 83, 17β-N-(2-(O-Phenyl)-5-(1,1-dimethyl)propyl)phenyl-carbamoyl-6-azaandrost-4-en-3-one], the IC50 in assay [1] was below 0.01 µM; in assay [2], 0.01 to 0.1 µM.

Turning to `CC1=C2NC[C@H]3[C@@H]4CC[C@H](C(=O)NC5(c6ccc(Cl)cc6)CCCC5)[C@@]4(C)CC[C@@H]3[C@@]2(C)CCC1=O` [Compound 125, 17β-N-1-(4-Chlorophenyl)cyclopentyl-carbamovl-6-azaandrost-4-methyl-4-en-3-one], the IC50 in assay [1] and in assay [2] was below 0.01 µM each time.

`CCOC(=O)c1ccccc1NC(=O)[C@H]1CC[C@H]2[C@@H]3CNC4=CC(=O)CC[C@]4(C)[C@H]3CC[C@]12C` [Compound 114, 17β-N-(2-Carboethoxy)phenyl-carbamoyl-6-azaandrost-4-en-3-one]: the IC50 was below 0.01 µM in assay [1] and 0.01 to 0.1 µM in assay [2].

Consider `CC(C)(C)c1ccc(-c2ccc(Cl)cc2)cc1NC(=O)[C@H]1CC[C@H]2[C@@H]3CNC4=CC(=O)CC[C@]4(C)[C@H]3CC[C@]12C` [Compound 120, 17β-N-(2-t-Butyl-5-(4-chlorophenyl))phenyl-carbamoyl-6-azaandrost-4-en-3-one], for which the IC50 in assay [1] and in assay [2] was below 0.01 µM throughout.

Take `CC(C)(C)c1ccc(C2(NC(=O)[C@H]3CC[C@H]4[C@@H]5CNC6=CC(=O)CC[C@]6(C)[C@H]5CC[C@]34C)CCCCCC2)cc1` [Compound 136, 17β-N-1-(4-t-Butylphenyl)cycloheptyl-carbamoyl-6-azaandrost-4-en-3-one]: the IC50 in assay [1] and in assay [2] was below 0.01 µM throughout.

On to `CCc1ccc(Cl)c(CC)c1NC(=O)[C@H]1CC[C@H]2[C@@H]3CNC4=CC(=O)CC[C@]4(C)[C@H]3CC[C@]12C` [Compound 55, 17β-N-(2,6-Diethyl-3-chloro)phenyl-carbamoyl-6-azaandrost-4-en-3-one], for which the IC50 in assay [1] was below 0.01 µM; in assay [2], 0.01 to 0.1 µM.
